The values that follow come from PubChem BioAssay AID2060904 (Molecular Pharmacology Branch, DTP, NCI, 2025).

The structures appear in SMILES notation. pIC50: −log10 of the molar value. “And” between values parts separate entries of the source, which are not always exact repeats. Identical values can stand only once.

Usually pIC50 stands for the negative decadic logarithm of the IC50, by convention in mol/L. What is called viability, T/C is the result in the treated group divided by that in the control group, in per cent. A word on the IC50: it is the point on the concentration scale where inhibition reaches its midpoint.

The test system of this assay is 349418-098-R-PDC complex spheroid viability. Description: Anticancer human tumor 349418-098-R-PDC patient-derived lung adenocarcinoma cell line growth inhibition [RAS]. Conditions: for viability, T/C: stronger effect = lower value. The method in brief: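 Multi-cell-type spheroids: tumor cells plus HUVEC endothelial cells and mesenchymal stem cells. RAS-pathway inhibitors were combined with targeted agents, each dosed in half-log steps down from clinical Cmax, or from 10 microM when Cmax was unknown.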

Where [1] appears, read: curve of first compound, second compound 0.000949 µM.
[2] abbreviates: curve of first compound, second compound 0.003 µM.
[3] abbreviates: curve of first compound, second compound 0.00949 µM.
Setting [4] is: curve of first compound, second compound 0.03 µM.
[5] abbreviates: curve of first compound, second compound 0.0949 µM.
Where [6] appears, read: curve of first compound, second compound 0.3 µM.
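Also: spheroids exposed to compound for seven days before viability readout.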

With `CCc1c2c(nc3ccc(O)cc13)-c1cc3c(c(=O)n1C2)COC(=O)[C@]3(O)CC` + CCn1c(-c2cc(N3CCN(C)CC3)cnc2C(C)OC)c2c3cc(ccc31)-c1csc(n1)CC(NC(=O)C1CC1C)C(=O)N1CCCC(N1)C(=O)OCC(C)(C)C2, the pIC50 is, setting by setting: under setting [1], 8.61; under setting [2], 8.61; under setting [3], 8.48; under setting [4], 8.64; under setting [5], 8.56; under setting [6], 8.62. Besides, the viability, T/C is 88% (second compound 0.000949 µM, first compound 0.000949 µM); 42.6% (second compound 0.000949 µM, first compound 0.003 µM); 12.3% (second compound 0.000949 µM, first compound 0.00949 µM); 6.15% (second compound 0.000949 µM, first compound 0.03 µM); 2.77% (second compound 0.000949 µM, first compound 0.0949 µM); 1.87% (second compound 0.000949 µM, first compound 0.3 µM). The viability, T/C by setting is: (second compound 0.003 µM, first compound 0.000949 µM) 80.7%; (second compound 0.003 µM, first compound 0.003 µM) 43.8%; (second compound 0.003 µM, first compound 0.00949 µM) 13.4%; (second compound 0.003 µM, first compound 0.03 µM) 5.78%; (second compound 0.003 µM, first compound 0.0949 µM) 2.15%; (second compound 0.003 µM, first compound 0.3 µM) 1.76%. Besides, the viability, T/C reads like this: (second compound 0.00949 µM, first compound 0.000949 µM) 84.5%; (second compound 0.00949 µM, first compound 0.003 µM) 53.7%; (second compound 0.00949 µM, first compound 0.00949 µM) 13.5%; (second compound 0.00949 µM, first compound 0.03 µM) 6.16%; (second compound 0.00949 µM, first compound 0.0949 µM) 3.17%; (second compound 0.00949 µM, first compound 0.3 µM) 1.91%. The viability, T/C (second compound 0.03 µM, first compound 0.000949 µM) was 90.9%; the viability, T/C (second compound 0.03 µM, first compound 0.003 µM) was 38%; the viability, T/C (second compound 0.03 µM, first compound 0.00949 µM) is 11.6%; the viability, T/C (second compound 0.03 µM, first compound 0.03 µM) was 5.22%; the viability, T/C (second compound 0.03 µM, first compound 0.0949 µM) was 2.72%; the viability, T/C (second compound 0.03 µM, first compound 0.3 µM) is 2.61%. For the same molecule, the viability, T/C (second compound 0.0949 µM, first compound 0.000949 µM) was 88.9%; the viability, T/C (second compound 0.0949 µM, first compound 0.003 µM) is 47.3%; the viability, T/C (second compound 0.0949 µM, first compound 0.00949 µM) was 17.3%; the viability, T/C (second compound 0.0949 µM, first compound 0.03 µM) is 6.18%; the viability, T/C (second compound 0.0949 µM, first compound 0.0949 µM) was 2.99%; the viability, T/C (second compound 0.0949 µM, first compound 0.3 µM) is 1.97%. Besides, the viability, T/C (second compound 0.3 µM, first compound 0.000949 µM) is 87.1%; the viability, T/C (second compound 0.3 µM, first compound 0.003 µM) was 41%; the viability, T/C (second compound 0.3 µM, first compound 0.00949 µM) is 19.7%; the viability, T/C (second compound 0.3 µM, first compound 0.03 µM) was 7.26%; the viability, T/C (second compound 0.3 µM, first compound 0.0949 µM) was 3.82%; the viability, T/C (second compound 0.3 µM, first compound 0.3 µM) is 1.95%.

For the molecule `Nc1ccn(C2OC(CO)C(O)C2(F)F)c(=O)n1` (stereo not given), the viability, T/C is, setting by setting: (compound 0.00316 µM) 25.7% [middle of 4 runs]; (compound 0.01 µM) 6.96% [middle of 4 runs]; (compound 0.0316 µM) 5.62% [middle of 4 runs]; (compound 0.1 µM) 5.46% [middle of 4 runs]; (compound 0.316 µM) 5.2% [middle of 4 runs]; (compound 1 µM) 5.11% [middle of 4 runs]. Also, where the note is “curve of compound”, the pIC50 is greater than 8.50.

As to `CC(C)NCC(C(=O)N1CCN(c2ncnc3c2C(C)CC3O)CC1)c1ccc(Cl)cc1` (stereo not given) + CCn1c(-c2cccnc2C(C)OC)c2c3cc(ccc31)N1CCOC(CC(NC(=O)C(C(C)C)N(C)C(=O)C3(F)CCN(C(=O)C#CC(C)(C)N(C)C)CC3)C(=O)N3CCCC(N3)C(=O)OCC(C)(C)C2)C1, the pIC50 by setting is: under setting [1], 6.22; under setting [2], 6.45; under setting [3], 6.30; under setting [4], 6.29; under setting [5], 6.28; under setting [6], 6.45. In addition, the viability, T/C by setting is: (second compound 0.000949 µM, first compound 0.0316 µM) 83.5%; (second compound 0.000949 µM, first compound 0.1 µM) 88.7%; (second compound 0.000949 µM, first compound 0.316 µM) 76%; (second compound 0.000949 µM, first compound 1 µM) 29.1%; (second compound 0.000949 µM, first compound 3.16 µM) 24.2%; (second compound 0.000949 µM, first compound 10 µM) 10.7%. Also, the viability, T/C is 103% (second compound 0.003 µM, first compound 0.0316 µM); 60.9% (second compound 0.003 µM, first compound 0.1 µM); 51.6% (second compound 0.003 µM, first compound 0.316 µM); 48.1% (second compound 0.003 µM, first compound 1 µM); 18.7% (second compound 0.003 µM, first compound 3.16 µM); 10.2% (second compound 0.003 µM, first compound 10 µM). Further, the viability, T/C was 101% (second compound 0.00949 µM, first compound 0.0316 µM); 85.7% (second compound 0.00949 µM, first compound 0.1 µM); 58.9% (second compound 0.00949 µM, first compound 0.316 µM); 35% (second compound 0.00949 µM, first compound 1 µM); 19.6% (second compound 0.00949 µM, first compound 3.16 µM); 8.77% (second compound 0.00949 µM, first compound 10 µM). The viability, T/C reads like this: (second compound 0.03 µM, first compound 0.0316 µM) 97.6%; (second compound 0.03 µM, first compound 0.1 µM) 86.8%; (second compound 0.03 µM, first compound 0.316 µM) 56.8%; (second compound 0.03 µM, first compound 1 µM) 33.3%; (second compound 0.03 µM, first compound 3.16 µM) 28.5%; (second compound 0.03 µM, first compound 10 µM) 8.92%. In addition, the viability, T/C (second compound 0.0949 µM, first compound 0.0316 µM) was 83.3%; the viability, T/C (second compound 0.0949 µM, first compound 0.1 µM) was 75.5%; the viability, T/C (second compound 0.0949 µM, first compound 0.316 µM) was 62.9%; the viability, T/C (second compound 0.0949 µM, first compound 1 µM) was 32.5%; the viability, T/C (second compound 0.0949 µM, first compound 3.16 µM) is 24.2%; the viability, T/C (second compound 0.0949 µM, first compound 10 µM) was 8.81%. The viability, T/C is 94.9% (second compound 0.3 µM, first compound 0.0316 µM); 76.7% (second compound 0.3 µM, first compound 0.1 µM); 46.5% (second compound 0.3 µM, first compound 0.316 µM); 34.3% (second compound 0.3 µM, first compound 1 µM); 27.5% (second compound 0.3 µM, first compound 3.16 µM); 11% (second compound 0.3 µM, first compound 10 µM).

With `C=CC(=O)Nc1cc(Nc2nccc(-c3cn(C)c4ccccc34)n2)c(OC)cc1N(C)CCN(C)C`, the viability, T/C reads like this: (compound 0.00316 µM) 104% [middle of 4 runs]; (compound 0.316 µM) 85.7% [middle of 4 runs]; (compound 1 µM) 71.4% [middle of 4 runs]. In addition, for the setting “curve of compound”, the pIC50 was less than 6.00.

As for `CC(C)n1nc(-c2ccc3oc(N)nc3c2)c2c(N)ncnc21`, the viability, T/C reads like this: (compound 0.00316 µM) 44.1% (2×) and 55.6% and 55.3%; (compound 0.01 µM) 17% [middle of 4 runs]; (compound 0.0316 µM) 8.74% [middle of 4 runs]; (compound 0.1 µM) 7.93% [middle of 4 runs]. For the setting “curve of compound”, the half-inhibitory concentration (IC50) was 3.6 nM [middle of 4 runs].
